Assay results: the NIST ThermoML archive (doi:10.1016/j.jct.2008.10.005)
± gives the expanded uncertainty stated by the source.

Columns and labels:
[1] = Crystal; DTA
[2] = Molar enthalpy of transition or fusion; settings: Crystal; DSC

| SMILES | Normal melting temperature [1] | Molar enthalpy of transition or fusion [2] |
| --- | --- | --- |
| Clc1cccc(Cl)c1 [1,3-dichlorobenzene] | -24.90 ± 0.53 °C | 3.01 ± 0.203 kcal/mol |
| c1ccc2ccccc2c1 [naphthalene] | 80.10 ± 0.53 °C | 4.54 ± 0.215 kcal/mol |
| Clc1ccccc1Cl [1,2-dichlorobenzene] | -17.30 ± 0.53 °C | 2.96 ± 0.203 kcal/mol |
| Clc1ccc(Cl)cc1 [1,4-dichlorobenzene] | 53.00 ± 0.53 °C | 4.35 ± 0.213 kcal/mol |
